From ChEMBL document CHEMBL1141723, “Specific targeting of metzincin family members with small-molecule inhibitors: progress toward a multifarious challenge” (Bioorg Med Chem, 2008)
Activity calls are given as the source filed them. No cut-off for these calls is given here.

Experiments:
[1] = target: 72 kDa type IV collagenase (Homo sapiens, UniProt P08253)
Collagenase 3 [2] = target: T1, Collagenase 3 (Homo sapiens, UniProt P45452); experiment: Inhibition of MMP13
[3] = target: Matrix metalloproteinase-14 (Homo sapiens, UniProt P50281); experiment: Inhibition of MMP14
Stromelysin-3 = Stromelysin-3 (Homo sapiens, UniProt P24347); experiment: Inhibition of MMP11
Matrilysin = target: T2, Matrilysin (Homo sapiens, UniProt P09237)
T2 sequence (P09237 whole entry): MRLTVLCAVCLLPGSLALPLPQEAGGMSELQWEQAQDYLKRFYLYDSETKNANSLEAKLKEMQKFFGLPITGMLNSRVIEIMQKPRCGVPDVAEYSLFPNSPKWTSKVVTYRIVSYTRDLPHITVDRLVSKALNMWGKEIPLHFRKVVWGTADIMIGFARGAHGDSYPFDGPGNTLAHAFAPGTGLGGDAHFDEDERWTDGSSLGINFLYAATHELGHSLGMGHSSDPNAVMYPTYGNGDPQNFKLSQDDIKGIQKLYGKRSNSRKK

[4] = target: Matrix metalloproteinase-9 (Homo sapiens, UniProt P14780); experiment: Inhibition of MMP9
[5] = target: Macrophage metalloelastase (Homo sapiens, UniProt P39900); experiment: Inhibition of MMP12
Neutrophil collagenase = Neutrophil collagenase (Homo sapiens, UniProt P22894); experiment: Inhibition of MMP8
[6] = target: Angiotensin-converting enzyme (Homo sapiens, UniProt P12821); experiment: Inhibition of ACE
[7] = target: Disintegrin and metalloproteinase domain-containing protein 17 (Homo sapiens, UniProt P78536); experiment: Inhibition of TACE
Neprilysin = Neprilysin (Homo sapiens, UniProt P08473); experiment: Inhibition of NEP
Stromelysin-1 = Stromelysin-1 (Homo sapiens, UniProt P08254)
Interstitial collagenase = target: T3, Interstitial collagenase (Homo sapiens, UniProt P03956)
T3 sequence (P03956 whole entry): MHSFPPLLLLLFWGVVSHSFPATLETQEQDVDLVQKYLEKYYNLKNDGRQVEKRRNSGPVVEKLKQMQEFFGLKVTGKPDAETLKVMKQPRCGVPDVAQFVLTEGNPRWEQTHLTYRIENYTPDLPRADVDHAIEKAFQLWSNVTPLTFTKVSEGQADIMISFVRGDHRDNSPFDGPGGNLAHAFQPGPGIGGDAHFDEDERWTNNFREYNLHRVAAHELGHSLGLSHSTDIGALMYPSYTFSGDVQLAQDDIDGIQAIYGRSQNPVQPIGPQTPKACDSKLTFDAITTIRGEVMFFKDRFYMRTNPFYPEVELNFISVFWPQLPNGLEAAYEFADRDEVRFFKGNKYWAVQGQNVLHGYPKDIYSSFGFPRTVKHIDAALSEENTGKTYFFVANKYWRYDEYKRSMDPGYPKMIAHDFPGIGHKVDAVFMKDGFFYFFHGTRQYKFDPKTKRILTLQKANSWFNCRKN

[8] = target: Disintegrin and metalloproteinase domain-containing protein 9 (Homo sapiens, UniProt Q13443)
[9] = target: Disintegrin and metalloproteinase domain-containing protein 33 (Homo sapiens, UniProt Q9BZ11); experiment: Inhibition of ADAM33
[10] = Selectivity for bovine aggrecanase over MMP1
[11] = Inhibition of bovine aggrecanase; design: species or system Bos taurus
[12] = Selectivity for bovine aggrecanase over MMP2
Collagenase 3 [13] = target: T1, Collagenase 3; experiment: Inhibition of MMP13 at 10 ug/mL
[14] = target: T4, Matrilysin (Homo sapiens) (UniProt P09237); experiment: Inhibition of MMP7 up to 60 uM
T4 sequence (whole entry): T2 sequence (P09237 whole entry)

[15] = target: T5, Interstitial collagenase (Homo sapiens) (UniProt P03956); experiment: Inhibition of MMP1 up to 60 uM
T5 sequence (whole entry): T3 sequence (P03956 whole entry)

[16] = Selectivity for MMP13 over MMP9
[17] = Selectivity for MMP13 over MMP12
[18] = Selectivity for MMP13 over MMP3
[19] = Selectivity for MMP13 over MMP1
[20] = Selectivity for MMP13 over MMP2
[21] = Selectivity for MMP13 over MMP14
[22] = Selectivity for MMP13 over MMP8

Stromelysin-1, sequence (P08254 whole entry): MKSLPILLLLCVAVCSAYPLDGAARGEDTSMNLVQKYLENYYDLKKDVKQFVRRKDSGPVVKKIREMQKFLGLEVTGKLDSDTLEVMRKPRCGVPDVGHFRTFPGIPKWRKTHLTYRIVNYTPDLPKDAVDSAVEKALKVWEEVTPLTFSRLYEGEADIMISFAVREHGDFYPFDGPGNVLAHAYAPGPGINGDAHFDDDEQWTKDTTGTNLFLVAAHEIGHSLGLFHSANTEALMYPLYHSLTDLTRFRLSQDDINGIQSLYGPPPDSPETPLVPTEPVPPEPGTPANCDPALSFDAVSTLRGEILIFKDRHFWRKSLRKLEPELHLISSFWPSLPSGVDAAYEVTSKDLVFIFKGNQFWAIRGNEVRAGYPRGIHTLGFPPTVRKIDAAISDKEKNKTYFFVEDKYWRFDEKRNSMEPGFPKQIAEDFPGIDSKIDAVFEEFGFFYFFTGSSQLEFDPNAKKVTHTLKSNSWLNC
72 kDa type IV collagenase, sequence (P08253 whole entry): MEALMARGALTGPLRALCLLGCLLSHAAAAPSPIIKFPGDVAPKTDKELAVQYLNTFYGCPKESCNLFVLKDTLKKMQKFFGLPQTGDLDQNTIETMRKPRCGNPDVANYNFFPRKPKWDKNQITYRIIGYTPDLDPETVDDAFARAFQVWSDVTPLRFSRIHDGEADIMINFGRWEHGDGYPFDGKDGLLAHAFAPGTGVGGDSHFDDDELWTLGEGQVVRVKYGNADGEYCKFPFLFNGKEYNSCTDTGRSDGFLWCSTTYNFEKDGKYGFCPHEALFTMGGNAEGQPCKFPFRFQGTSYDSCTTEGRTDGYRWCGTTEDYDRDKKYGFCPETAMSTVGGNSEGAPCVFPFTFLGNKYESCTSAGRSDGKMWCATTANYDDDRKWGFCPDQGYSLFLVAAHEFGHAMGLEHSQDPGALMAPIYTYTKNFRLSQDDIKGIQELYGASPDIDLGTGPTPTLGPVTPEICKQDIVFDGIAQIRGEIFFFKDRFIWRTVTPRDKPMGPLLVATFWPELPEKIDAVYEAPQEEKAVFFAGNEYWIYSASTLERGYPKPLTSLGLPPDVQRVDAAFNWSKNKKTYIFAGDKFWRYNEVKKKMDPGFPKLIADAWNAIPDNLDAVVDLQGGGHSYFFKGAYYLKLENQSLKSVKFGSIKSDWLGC
Matrix metalloproteinase-9, sequence (P14780 whole entry): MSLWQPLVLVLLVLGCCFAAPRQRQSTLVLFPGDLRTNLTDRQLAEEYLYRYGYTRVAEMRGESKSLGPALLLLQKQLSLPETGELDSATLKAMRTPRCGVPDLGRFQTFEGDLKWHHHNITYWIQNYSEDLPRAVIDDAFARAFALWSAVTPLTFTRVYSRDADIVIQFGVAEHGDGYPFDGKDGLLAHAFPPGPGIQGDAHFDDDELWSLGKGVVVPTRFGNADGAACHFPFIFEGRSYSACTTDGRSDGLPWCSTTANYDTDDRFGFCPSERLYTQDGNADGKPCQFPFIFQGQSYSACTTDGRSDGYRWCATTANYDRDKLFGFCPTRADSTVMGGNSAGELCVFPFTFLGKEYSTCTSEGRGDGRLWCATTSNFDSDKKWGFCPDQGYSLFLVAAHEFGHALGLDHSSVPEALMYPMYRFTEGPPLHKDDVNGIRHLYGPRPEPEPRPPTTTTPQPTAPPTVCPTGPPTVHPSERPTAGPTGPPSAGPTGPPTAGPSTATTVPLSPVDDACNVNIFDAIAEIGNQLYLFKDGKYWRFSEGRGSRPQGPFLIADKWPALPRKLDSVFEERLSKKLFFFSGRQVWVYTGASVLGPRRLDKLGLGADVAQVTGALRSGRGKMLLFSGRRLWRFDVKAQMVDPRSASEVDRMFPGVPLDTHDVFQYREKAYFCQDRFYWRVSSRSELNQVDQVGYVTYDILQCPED
Macrophage metalloelastase, sequence (P39900 whole entry): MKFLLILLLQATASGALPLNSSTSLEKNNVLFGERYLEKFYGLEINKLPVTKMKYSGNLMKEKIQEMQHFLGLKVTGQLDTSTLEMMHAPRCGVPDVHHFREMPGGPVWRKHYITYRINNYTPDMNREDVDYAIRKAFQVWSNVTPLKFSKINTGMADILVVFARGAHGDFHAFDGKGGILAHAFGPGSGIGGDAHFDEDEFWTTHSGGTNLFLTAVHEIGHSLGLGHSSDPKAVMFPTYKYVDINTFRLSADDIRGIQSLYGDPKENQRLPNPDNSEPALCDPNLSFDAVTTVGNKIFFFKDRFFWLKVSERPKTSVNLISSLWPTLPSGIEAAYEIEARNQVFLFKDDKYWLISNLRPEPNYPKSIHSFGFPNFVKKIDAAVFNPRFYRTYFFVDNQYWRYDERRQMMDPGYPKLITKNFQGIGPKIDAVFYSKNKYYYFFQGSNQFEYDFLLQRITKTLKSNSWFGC
Angiotensin-converting enzyme, sequence (P12821 whole entry, the tested form may be a part): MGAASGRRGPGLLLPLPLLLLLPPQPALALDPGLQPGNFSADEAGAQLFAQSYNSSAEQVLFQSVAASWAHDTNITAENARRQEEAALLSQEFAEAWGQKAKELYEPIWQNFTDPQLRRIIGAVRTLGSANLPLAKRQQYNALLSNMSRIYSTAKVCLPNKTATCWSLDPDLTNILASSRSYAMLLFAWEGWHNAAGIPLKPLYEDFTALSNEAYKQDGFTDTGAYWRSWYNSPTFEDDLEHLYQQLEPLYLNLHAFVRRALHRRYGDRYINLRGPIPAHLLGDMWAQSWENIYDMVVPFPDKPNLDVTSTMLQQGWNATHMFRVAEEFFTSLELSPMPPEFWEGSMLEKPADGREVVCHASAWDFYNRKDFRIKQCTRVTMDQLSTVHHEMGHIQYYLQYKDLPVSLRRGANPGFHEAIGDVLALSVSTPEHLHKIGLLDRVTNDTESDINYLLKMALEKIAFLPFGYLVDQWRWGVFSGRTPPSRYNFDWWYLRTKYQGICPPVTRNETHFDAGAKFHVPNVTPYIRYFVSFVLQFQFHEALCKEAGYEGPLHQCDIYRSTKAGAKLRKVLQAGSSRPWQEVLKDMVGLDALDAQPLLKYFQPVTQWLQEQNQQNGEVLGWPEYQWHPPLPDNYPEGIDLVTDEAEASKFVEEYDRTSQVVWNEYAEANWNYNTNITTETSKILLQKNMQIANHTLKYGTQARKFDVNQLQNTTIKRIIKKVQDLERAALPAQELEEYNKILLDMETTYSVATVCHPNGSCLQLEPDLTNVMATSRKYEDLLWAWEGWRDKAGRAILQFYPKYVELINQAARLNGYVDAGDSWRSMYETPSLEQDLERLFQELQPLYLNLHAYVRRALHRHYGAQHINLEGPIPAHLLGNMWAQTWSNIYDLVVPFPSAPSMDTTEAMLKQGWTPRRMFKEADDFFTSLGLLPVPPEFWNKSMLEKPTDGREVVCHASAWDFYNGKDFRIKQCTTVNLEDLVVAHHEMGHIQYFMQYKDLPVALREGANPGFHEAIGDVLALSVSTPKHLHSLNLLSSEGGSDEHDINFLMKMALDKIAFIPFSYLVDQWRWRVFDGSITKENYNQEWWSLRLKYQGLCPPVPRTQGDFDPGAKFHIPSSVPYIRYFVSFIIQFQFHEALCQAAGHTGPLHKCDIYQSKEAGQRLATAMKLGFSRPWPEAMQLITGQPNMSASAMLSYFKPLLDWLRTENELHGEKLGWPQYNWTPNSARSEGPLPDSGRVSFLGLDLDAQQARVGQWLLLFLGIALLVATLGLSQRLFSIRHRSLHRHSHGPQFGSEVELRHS
Neprilysin, sequence (P08473 whole entry): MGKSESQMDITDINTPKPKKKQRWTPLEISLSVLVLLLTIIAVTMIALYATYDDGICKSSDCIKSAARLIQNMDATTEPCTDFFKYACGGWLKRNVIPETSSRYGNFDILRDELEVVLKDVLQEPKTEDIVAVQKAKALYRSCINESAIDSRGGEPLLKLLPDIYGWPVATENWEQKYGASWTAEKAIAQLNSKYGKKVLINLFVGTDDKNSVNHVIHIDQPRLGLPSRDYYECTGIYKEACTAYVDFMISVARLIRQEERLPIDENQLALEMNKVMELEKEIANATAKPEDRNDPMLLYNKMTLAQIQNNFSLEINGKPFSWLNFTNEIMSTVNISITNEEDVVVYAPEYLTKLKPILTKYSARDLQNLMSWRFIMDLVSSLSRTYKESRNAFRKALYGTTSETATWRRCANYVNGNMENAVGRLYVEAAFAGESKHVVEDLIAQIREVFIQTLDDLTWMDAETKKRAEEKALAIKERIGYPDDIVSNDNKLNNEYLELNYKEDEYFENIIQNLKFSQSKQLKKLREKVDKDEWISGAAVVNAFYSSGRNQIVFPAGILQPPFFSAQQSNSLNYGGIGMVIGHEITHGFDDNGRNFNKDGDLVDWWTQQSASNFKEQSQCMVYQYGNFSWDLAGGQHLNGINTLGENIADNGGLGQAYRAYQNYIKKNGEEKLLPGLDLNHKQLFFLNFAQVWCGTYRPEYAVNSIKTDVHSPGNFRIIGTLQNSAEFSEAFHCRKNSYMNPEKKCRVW
Stromelysin-3, sequence (P24347 whole entry): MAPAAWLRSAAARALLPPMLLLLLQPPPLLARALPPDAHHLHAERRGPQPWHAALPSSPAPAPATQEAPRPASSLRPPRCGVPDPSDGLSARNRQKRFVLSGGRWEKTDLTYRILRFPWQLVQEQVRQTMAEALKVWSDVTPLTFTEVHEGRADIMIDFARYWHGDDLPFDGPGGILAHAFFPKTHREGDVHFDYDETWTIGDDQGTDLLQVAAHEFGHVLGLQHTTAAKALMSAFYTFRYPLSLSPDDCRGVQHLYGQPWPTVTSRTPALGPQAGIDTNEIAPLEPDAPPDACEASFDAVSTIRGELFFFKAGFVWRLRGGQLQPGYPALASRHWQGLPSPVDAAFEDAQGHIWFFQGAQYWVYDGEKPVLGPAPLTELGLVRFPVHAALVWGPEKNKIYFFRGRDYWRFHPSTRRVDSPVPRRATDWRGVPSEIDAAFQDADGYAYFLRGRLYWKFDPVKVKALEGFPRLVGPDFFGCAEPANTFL

Compound `NC(=O)[C@H](CCC(=O)O)NC(=O)[C@H](CCC(=O)O)NC(=O)[C@H](Cc1cc(-c2ccc(-c3cccc(Cl)c3)cc2)no1)CP(=O)(O)c1ccc(Br)cc1` has a Ki [1] of 192 nM, a Ki (Collagenase 3 [2]) of 49 nM and a Ki [3] of 140 nM. It also gave a Ki (Stromelysin-3) of 18400 nM, a Ki (Matrilysin) of 626 nM and a Ki [4] of 1260 nM. It also gave a Ki [5] of 0.19 nM, a Ki (Neutrophil collagenase) of 271 nM and a Ki [6] of over 100000 nM. For the same compound, the Ki [7] was over 100000 nM, the Ki (Neprilysin) was over 100000 nM and the Ki (Stromelysin-1) was 40 nM. The Ki (Interstitial collagenase) was 67000 nM.
With `COC(=O)N1CC2(CC2)C[C@H](C(=O)NO)[C@H]1C(=O)N1CC=C(c2ccccc2)CC1` the IC50 [1] was 35 nM, the IC50 (Matrilysin) was over 5000 nM and the IC50 [4] was 304 nM. The IC50 [8] was over 5000 nM, the IC50 [9] was 1030 nM and the IC50 (Stromelysin-1) was 3560 nM. For the same compound, the IC50 (Interstitial collagenase) was over 5000 nM.
`CS(=O)(=O)N1CCC([C@H](C(=O)NO)[C@@H](Cc2cccc(O)c2)C(=O)N[C@H]2c3ccccc3C[C@H]2O)CC1` gave a fold change (FC) [10] of over 100, an IC50 [11] of 3 nM and a fold change (FC) [12] of over 100.
In the case of `O=C(NCCCCN1CCOCC1)c1cc2ccccc2o1`, the Activity (Collagenase 3 [13]) is reported as “inactive”.
In the case of `O=S(=O)(CCC(S)CS)c1ccc(Oc2ccccc2)cc1` (stereo not drawn), the Ki [1] is reported as 46 nM, the Ki [3] is reported as 210 nM and the Activity [14] is reported as “inactive”. For the same compound, the Ki [4] was 100 nM, the Activity [15] was “inactive” and the Ki (Stromelysin-1) was 10000 nM.
Work on `COCCC1(Oc2ccc(Oc3ccc(-c4nc(-c5ccc(C#N)cc5)co4)cc3)cc2)C(=O)NC(=O)NC1=O` yielded a fold change (FC) [16] of 540, a fold change (FC) [17] of 619 and a fold change (FC) [18] of 17000. For the same compound, the fold change (FC) [19] was 2400, the IC50 (Collagenase 3 [2]) was 0.36 nM and the fold change (FC) [20] was 397. For the same compound, the fold change (FC) [21] was 540 and the fold change (FC) [22] was 394.
